Data taken from ChEMBL document CHEMBL5465560, “Selectivity Literature for EUbOPEN Chemogenomic Library” (2024).
Each block holds one compound with its values, some of them ahead of it.

Experiments:
[1] = biological target: T1, Ephrin type-B receptor 2 (Homo sapiens) (UniProt P29323); assay: Selectivity interaction (KinomeScan (DiscoverX)) EUB0001619a EPHB2; conditions: at 1 µM
T1 sequence (whole entry): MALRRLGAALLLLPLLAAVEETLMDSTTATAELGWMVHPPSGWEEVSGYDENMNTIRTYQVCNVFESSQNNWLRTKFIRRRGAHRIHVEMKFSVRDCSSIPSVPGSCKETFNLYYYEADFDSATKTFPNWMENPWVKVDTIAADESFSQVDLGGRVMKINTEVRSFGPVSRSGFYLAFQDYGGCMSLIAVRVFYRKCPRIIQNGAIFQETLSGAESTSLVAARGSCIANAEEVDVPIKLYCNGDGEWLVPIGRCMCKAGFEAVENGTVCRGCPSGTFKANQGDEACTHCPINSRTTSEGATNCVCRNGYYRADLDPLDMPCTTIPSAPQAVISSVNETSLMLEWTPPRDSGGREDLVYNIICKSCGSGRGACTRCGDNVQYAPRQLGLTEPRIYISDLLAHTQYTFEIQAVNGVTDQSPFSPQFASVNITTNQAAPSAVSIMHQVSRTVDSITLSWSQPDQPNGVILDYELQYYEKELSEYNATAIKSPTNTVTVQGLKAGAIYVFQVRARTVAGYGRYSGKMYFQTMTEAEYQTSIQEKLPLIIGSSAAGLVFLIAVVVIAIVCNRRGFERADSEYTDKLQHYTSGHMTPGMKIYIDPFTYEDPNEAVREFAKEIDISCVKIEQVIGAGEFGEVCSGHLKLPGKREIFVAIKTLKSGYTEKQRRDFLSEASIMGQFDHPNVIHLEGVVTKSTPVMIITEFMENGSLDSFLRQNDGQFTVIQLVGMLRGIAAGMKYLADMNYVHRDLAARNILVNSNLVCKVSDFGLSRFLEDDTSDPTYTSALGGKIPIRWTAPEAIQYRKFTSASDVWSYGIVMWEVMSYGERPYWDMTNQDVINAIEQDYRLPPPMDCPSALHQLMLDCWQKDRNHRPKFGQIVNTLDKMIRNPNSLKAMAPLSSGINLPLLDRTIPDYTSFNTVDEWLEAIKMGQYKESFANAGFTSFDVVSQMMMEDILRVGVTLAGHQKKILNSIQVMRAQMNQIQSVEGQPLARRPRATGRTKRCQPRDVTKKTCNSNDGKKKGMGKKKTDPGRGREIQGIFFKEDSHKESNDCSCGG

[2] = biological target: Serine/threonine-protein kinase 24 (Homo sapiens) (UniProt Q9Y6E0); assay: Selectivity interaction (ActivX KiNativ screen (ex vivo kinase selectivity in human PBMCs)) EUB0001619a STK24; type: cell-based; conditions: PBMC, at 1 µM
Serine/threonine-protein kinase 24 (Homo sapiens), sequence (Q9Y6E0 whole entry, looked up): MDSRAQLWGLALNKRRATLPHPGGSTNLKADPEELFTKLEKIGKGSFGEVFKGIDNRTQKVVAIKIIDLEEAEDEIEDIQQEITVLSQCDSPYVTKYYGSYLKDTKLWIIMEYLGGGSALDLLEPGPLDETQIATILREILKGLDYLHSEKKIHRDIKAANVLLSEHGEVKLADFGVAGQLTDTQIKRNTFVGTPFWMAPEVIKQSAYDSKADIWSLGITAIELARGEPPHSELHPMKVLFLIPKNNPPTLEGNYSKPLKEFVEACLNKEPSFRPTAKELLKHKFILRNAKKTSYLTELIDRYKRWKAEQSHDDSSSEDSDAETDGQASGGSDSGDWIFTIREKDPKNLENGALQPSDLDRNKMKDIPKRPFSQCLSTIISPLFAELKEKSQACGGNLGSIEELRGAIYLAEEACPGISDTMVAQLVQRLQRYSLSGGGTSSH

[3] = biological target: Protein-tyrosine kinase 6 (Homo sapiens, UniProt Q13882); assay: Selectivity interaction (KinomeScan (DiscoverX)) EUB0001619a PTK6; conditions: at 1 µM
Protein-tyrosine kinase 6, sequence (Q13882 whole entry, looked up): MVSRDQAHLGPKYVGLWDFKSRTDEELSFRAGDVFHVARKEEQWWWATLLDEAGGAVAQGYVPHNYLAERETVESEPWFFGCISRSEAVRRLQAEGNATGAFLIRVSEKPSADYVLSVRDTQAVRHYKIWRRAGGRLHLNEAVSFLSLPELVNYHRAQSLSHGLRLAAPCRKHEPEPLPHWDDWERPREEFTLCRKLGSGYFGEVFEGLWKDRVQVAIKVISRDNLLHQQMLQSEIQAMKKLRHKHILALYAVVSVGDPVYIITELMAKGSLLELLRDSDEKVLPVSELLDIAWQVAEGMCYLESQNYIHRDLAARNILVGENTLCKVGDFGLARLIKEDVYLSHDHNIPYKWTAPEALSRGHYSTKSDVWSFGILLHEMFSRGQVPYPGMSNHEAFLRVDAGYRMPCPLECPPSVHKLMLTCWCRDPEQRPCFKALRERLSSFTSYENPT

[4] = biological target: T2, Histone-arginine methyltransferase CARM1 (Homo sapiens) (UniProt Q86X55); conditions: KMS-12-PE, at 3 µM
T2 sequence (whole entry): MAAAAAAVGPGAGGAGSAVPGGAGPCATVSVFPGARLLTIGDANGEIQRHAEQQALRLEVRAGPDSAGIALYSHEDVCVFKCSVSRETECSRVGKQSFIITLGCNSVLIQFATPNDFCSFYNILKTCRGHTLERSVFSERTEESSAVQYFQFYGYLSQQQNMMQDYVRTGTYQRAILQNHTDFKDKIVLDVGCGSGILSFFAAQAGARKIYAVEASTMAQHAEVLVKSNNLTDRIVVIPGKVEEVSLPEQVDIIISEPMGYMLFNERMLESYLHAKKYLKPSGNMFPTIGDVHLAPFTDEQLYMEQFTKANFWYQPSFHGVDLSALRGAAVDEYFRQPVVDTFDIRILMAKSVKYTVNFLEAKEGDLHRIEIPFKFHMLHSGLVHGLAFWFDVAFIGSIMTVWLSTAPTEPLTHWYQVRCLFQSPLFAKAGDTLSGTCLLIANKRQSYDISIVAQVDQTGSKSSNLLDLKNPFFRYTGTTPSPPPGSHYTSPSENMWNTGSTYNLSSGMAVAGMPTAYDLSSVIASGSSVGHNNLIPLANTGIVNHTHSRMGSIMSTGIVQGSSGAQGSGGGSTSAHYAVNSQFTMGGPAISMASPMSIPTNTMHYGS

[5] = biological target: Calcium/calmodulin-dependent protein kinase type II subunit beta (Homo sapiens) (UniProt Q13554); assay: Selectivity interaction (ActivX KiNativ screen (kinase selectivity in THP-1 cell lysates)) EUB0000639a CAMK2B; type: subcellular; conditions: lysate, at 0.2 µM
Calcium/calmodulin-dependent protein kinase type II subunit beta (Homo sapiens), sequence (Q13554 whole entry): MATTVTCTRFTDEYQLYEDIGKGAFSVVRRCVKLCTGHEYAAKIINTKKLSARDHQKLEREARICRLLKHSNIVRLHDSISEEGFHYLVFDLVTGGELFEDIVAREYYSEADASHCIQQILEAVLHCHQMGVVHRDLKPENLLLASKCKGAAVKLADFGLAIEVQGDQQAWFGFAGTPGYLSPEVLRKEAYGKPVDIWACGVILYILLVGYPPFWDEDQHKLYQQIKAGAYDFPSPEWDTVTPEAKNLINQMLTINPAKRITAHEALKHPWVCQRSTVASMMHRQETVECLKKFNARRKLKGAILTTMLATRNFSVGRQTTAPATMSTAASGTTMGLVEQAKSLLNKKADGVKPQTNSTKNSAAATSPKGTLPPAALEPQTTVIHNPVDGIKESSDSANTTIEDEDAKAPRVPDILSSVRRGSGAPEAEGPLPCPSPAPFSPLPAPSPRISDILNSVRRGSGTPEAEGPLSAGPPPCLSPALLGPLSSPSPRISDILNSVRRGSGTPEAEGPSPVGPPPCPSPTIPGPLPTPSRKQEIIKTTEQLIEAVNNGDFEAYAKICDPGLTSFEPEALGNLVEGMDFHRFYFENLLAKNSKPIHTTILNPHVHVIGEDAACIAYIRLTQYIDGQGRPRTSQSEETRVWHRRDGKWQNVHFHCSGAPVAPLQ

[6] = biological target: Phosphatidylinositol 4-kinase alpha (Homo sapiens, UniProt P42356); assay: Selectivity interaction (ActivX KiNativ screen (kinase selectivity in THP-1 cell lysates)) EUB0000639a PI4KA; type: subcellular; conditions: lysate
Phosphatidylinositol 4-kinase alpha, sequence (P42356 whole entry, looked up): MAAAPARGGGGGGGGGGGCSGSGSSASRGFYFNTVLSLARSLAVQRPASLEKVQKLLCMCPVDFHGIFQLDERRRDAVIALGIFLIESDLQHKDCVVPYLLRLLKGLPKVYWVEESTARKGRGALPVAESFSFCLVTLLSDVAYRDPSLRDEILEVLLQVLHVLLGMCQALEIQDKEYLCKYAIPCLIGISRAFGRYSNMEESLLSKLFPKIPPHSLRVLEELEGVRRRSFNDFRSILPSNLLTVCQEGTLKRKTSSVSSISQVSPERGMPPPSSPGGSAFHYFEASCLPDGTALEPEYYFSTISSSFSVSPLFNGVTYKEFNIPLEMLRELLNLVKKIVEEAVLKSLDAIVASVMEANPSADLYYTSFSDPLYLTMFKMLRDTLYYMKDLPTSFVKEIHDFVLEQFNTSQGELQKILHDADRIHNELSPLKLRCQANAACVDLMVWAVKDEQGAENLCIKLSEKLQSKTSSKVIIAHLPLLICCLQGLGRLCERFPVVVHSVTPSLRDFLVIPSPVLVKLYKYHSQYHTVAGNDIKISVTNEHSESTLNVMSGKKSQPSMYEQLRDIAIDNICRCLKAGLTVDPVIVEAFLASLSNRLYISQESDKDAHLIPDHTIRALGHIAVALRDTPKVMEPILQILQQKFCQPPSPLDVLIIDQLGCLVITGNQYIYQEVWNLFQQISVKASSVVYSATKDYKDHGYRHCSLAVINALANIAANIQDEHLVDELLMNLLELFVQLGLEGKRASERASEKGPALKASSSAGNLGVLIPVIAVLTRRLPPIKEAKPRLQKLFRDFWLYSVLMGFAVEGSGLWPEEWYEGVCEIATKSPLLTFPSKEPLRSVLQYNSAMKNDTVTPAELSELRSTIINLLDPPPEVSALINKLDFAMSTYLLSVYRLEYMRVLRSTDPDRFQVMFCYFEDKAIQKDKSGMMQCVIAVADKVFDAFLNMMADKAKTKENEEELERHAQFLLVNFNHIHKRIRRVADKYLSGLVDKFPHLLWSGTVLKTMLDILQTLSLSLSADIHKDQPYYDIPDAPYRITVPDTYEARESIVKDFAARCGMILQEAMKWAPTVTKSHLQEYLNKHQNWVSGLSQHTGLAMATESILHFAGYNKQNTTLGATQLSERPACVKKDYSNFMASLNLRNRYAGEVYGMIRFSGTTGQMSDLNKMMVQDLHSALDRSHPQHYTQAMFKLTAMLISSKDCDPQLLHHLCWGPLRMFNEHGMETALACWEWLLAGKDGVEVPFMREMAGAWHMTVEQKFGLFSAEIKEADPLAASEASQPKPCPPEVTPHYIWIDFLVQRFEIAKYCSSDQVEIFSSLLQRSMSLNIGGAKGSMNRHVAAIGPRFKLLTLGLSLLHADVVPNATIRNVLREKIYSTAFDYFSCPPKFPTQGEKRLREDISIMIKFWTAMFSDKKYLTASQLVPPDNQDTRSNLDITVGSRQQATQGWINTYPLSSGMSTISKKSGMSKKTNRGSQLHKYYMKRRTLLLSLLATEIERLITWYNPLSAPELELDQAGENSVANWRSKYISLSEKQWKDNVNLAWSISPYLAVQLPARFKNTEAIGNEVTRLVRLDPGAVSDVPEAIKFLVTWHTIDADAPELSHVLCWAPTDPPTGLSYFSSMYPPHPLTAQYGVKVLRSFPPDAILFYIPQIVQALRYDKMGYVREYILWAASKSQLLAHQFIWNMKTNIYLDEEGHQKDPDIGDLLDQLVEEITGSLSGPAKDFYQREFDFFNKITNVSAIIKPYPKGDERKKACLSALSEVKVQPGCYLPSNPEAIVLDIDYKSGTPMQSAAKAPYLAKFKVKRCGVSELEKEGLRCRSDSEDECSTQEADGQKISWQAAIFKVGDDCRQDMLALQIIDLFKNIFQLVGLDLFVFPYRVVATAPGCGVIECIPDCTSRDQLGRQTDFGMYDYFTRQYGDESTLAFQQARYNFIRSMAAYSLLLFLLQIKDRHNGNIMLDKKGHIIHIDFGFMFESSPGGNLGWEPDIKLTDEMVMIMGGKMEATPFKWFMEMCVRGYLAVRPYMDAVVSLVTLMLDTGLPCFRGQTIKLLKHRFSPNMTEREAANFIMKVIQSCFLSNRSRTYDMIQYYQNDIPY

[7] = biological target: Serine/threonine-protein kinase Chk2 (Homo sapiens) (UniProt O96017); assay: Selectivity interaction (KinomeScan (DiscoverX)) EUB0001049a CHEK2; conditions: at 1 µM
Serine/threonine-protein kinase Chk2 (Homo sapiens), sequence (O96017 whole entry): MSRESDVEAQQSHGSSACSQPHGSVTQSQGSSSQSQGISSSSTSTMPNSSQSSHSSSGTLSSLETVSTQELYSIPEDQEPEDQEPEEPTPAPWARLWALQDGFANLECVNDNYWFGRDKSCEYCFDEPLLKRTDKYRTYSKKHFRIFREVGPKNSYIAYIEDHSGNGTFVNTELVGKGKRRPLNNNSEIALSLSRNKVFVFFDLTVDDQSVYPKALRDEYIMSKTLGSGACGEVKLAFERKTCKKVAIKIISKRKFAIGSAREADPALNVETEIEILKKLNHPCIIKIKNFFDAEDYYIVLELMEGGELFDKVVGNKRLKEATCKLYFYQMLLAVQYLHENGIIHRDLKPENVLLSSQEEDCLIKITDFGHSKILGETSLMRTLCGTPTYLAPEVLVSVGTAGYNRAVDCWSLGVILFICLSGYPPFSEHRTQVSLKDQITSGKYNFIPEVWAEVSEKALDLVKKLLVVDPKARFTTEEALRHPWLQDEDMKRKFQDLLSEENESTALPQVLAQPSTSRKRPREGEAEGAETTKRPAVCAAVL

SMILES: N#Cc1cccc(-c2c[nH]c3ncnc(N4CCOCC4)c23)c1
% of control [1]: 92% | % of inhibition [2]: 39% | % of control [3]: 72%

% of growth rate [4]: -4.4%
SMILES: CNCCN1CCC(c2cc(CN(C)C(=O)c3cccc(Oc4ccccc4)c3)ccn2)CC1

% of inhibition [5]: 4.9% | % of inhibition ([6]; at 0.01 µM): 7.2% | % of inhibition ([6]; at 0.04 µM): -7.1% | % of inhibition ([6]; at 0.2 µM): -24.4% | % of inhibition ([6]; at 1 µM): -6% | % of inhibition ([6]; at 5 µM): 38.5%
SMILES: CC[C@@H]1[C@H](F)C(=O)N[C@@H]1COc1nccc2cc(C(N)=O)c(OC)cc12 [ZIMLOVISERTIB]

SMILES: COc1cc(Nc2nc(C)cc(-c3cnn4nc(OC)ccc34)n2)cc(C(F)(F)F)c1
% of control [7]: 54%
